For 1 molecule, solubility results are on record in US20080176255A1, “Mold detection composition and methods” (priority 2007, published 2008).

The structures appear in SMILES notation. Structures can show the parent of a compound that is named as a salt.

This data set in a line: Solubility in distilled water. The data set is classed as physicochemical. From the text: In one embodiment, the compositions described herein may further comprise a solvent; a gelling agent; and a diluent.

For orientation: solubility means how much of the substance goes into solution per volume. High values mean much dissolved substance, low ones little dissolved substance. For the molecule `O=S(=O)(O)c1ccccc1C=Cc1ccc(-c2ccc(C=Cc3ccccc3S(=O)(=O)O)cc2)cc1` [BBD, 2,2′-([1,1′-Biphenyl]-4,4′-diyldi-2,1-ethenediyl)bis-benzenesulfonic acid disodium salt], the solubility (at 25° C.) is 25 mg/mL and the solubility (at 95° C.) worked out at 300 mg/mL.
